For one data set, the system named is Male CD rats. Description: Rat MEST model (seizure threshold, CC50). In kind it is in vivo. The procedure: This work was conducted in compliance with the Home Office Guidance on the operation of the Animals (Scientific Procedures) Act 1986 and GlaxoSmithKline ethical standards. Male CD rats (100-145 g) were supplied by Charles River, UK. Animals were group housed (6 animal per cage) with free access to food (Standard rodent chow; Harlan, UK) and water under a 12 h light/dark cycle (lights on at 0700 h). A period of at least one week between arrival at GSK and the study was allowed in all cases.
Animals were administered a test compound at the appropriate dose, route and pre-treatment time and returned to their home cage. Testing occurred in a separate room from that used for housing. Testing involved determining the threshold for tonic hindlimb extensor seizures using a Hugo Sachs Electronik stimulator which delivers a constant current of 0.3 second duration, 50 Hz, sinewave form, fully adjustable between 1 and 300 mA. Stimuli were delivered via corneal electrodes (Stean T O, Atkins A R, Heidbreder C A, Quinn L P, Trail B K, Upton N. (2005) Br J. Pharmacol. 144(5):628-35). Seizure threshold was determined using the ‘up and down’ method of Kimball et al. (1957)(Kimball A W, Burnett W T Jr, Doherty D G. (1957) Radiat Res. 7(1):1-12). The first animal tested in each group was stimulated with a current that might be expected to be close to the threshold for induction of a seizure. If a tonic seizure was not induced, then next animal in the group received a stimulus 5 mA higher. If a tonic seizure was induced, then the next animal received a stimulus 5 mA lower. This is repeated for all animals within the control (vehicle) group. In the case of groups treated with a sodium channel blocker steps of 10 to 30 mA were used.
(§1) All doses were calculated as base. ENa9 and ENa13 were dosed via the subcutaneous (s.c.) route at 1 ml/kg in a 2% v/v DMSO/saline vehicle 30 minutes prior to test. ENa7 and ENa14 were dosed orally (p.o.) in a 1% w/v methylcellulose/water vehicle at 2 ml/kg, 60 minutes before test. Compound ENK6 was dosed with via the intraperitoneal (i.p.) route 60 minutes before the test or via the s.c. route 15 minutes before test. In both cases ENK6 was dissolved in saline.
Induction of seizure is measured as an all-or-nothing effect scored as either present (+) or absent (0) for each animal. The data for each treatment group were recorded as the number of +'s and 0's at each current level employed and this information was then used to calculate the CC50 value (current required for 50% of animals to show seizure behaviour)+standard error of the mean according to the method of Kimball et al. (1957). Drug effects were calculated as the % change in CC50. Significant differences between drug-treated animals and appropriate vehicle treated groups were assessed according to the methods of Litchfield and Wilcoxon (1949). The statistical significance of differences between sodium channel blocker alone or in combination with ENK6 was assessed using a Student's t test.

A short description of data set [1]: Blood and brain concentrations in satellite animals of the MEST study. Type of data set: in vivo, rat. The following applies: satellite rats; for concentration at 15 min / concentration at 30 min: rat, sc; for change of blood or brain concentration of the sodium channel blocker in the presence of ENK6: ENK6 30 mg/kg i.p. The procedure:
Satellite animals (n=3/group) received the same drugs or combinations of drugs as the test groups, and were culled at the appropriate time after dosing. Blood and brain samples were taken for analysis of the drug concentrations in these compartments.
as §1

The test system of the next data set is rats. Description: FCA (Freunds Complete Adjuvant) model of inflammatory hypersensitivity to pain (weight bearing). Type of data set: in vivo, rat. Here is the method: • Naïve weight bearing readings were taken. The hypersensitivity to pain was measured using the Rat incapacitance tester (Linton instruments). This instrument is serviced once a year and should be regularly calibrated • All rats then received an intraplantar injection of 100 ul of FCA (Freund's complete adjuvant) into the left hind paw. The FCA was sonicated for 15 minutes prior to use. • Approximately 23 hrs after administration of the FCA, pre-dose weight bearing readings were taken. All animals were then ranked and randomised for dosing according to their FCA window (predose difference in grams−naïve difference in grams). […] Celebrex 10 mg/kg p.o. (positive control) as appropriate according to ranking and randomisation. • Animals were assessed in the weight bearing apparatus 1 hour post dose. • The study was blind and randomised by FCA window using the Latin square method. • % reversals were calculated by using the naïve, pre-dose and post dose values as follows: % Reversal=[(Pre-dose−Post-dose)/(Pre-dose−Naïve)]×100 • Graphs and ED50 were calculated where appropriate using Prism4. • Statistical analysis was carried out using ANOVA followed by calculating the least square means using the statistical package Statistica 6.1 • From the dose response curves the ED20 was determined for the combination study • Naïve weight bearing readings were taken. The hypersensitivity to pain was measured using the Rat incapacitance tester (Linton instruments). This instrument is serviced once a year and should be regularly calibrated • All rats then received an intraplantar injection of 100 ul of FCA (Freund's complete adjuvant) into the left hind paw. The FCA was sonicated for 15 minutes prior to use. • Approximately 23 hrs after administration of the FCA, pre-dose weight bearing readings were taken. All animals were then ranked and randomised for dosing according to their FCA window (predose difference in grams−naïve difference in grams). […] See table 5 for details of the groups • Animals were assessed in the weight bearing apparatus 1 hour post dose. • The study was blind and randomised by FCA window using the Latin square method. • % reversals were calculated by using the naïve, pre-dose and post dose values as follows: % Reversal=[(Pre-dose−Post-dose)/(Pre-dose−Naïve)]×100 • Statistical analysis was carried out using ANOVA followed by calculating the least square means using the statistical package Statistica 6.1 • ED50 and ED20 values and graphs were calculated using prism5 • Naïve weight bearing readings were taken. The hypersensitivity to pain was measured using the Rat incapacitance tester (Linton instruments). This instrument is serviced once a year and should be regularly calibrated • All rats then received an intraplantar injection of 100 ul of FCA (Freund's complete adjuvant) into the left hind paw. The FCA was sonicated for 15 minutes prior to use. • Approximately 23 hrs after administration of the FCA, pre-dose weight bearing readings were taken. All animals were then ranked and randomised for dosing according to their FCA window (predose difference in grams—naïve difference in grams). Rats with FCA window less than 30 g were excluded from the study. • Animals were then dosed with the following in a fixed dose ratio of 1.25:1 according to ranking and randomisation. (Table 6) […] Graphs and ED50 were calculated where appropriate using Prism5 • Statistical analysis was carried out using ANOVA followed by calculating the least square means using the statistical package Statistica 6.1

[2] abbreviates: ENK6 10 mg/kg s.c. + ENa7 1 mg/kg p.o., n = 2-3.
Where [3] appears, read: ENK6 10 mg/kg s.c. + ENa7 3 mg/kg p.o., n = 2-3.
Where [4] appears, read: ENK6 30 mg/kg s.c. + ENa7 1 mg/kg p.o., n = 2.
[5] abbreviates: ENK6 30 mg/kg s.c. + ENa7 3 mg/kg p.o., n = 2.
Where [6] appears, read: sodium channel blocker 1 mg/kg s.c. in the presence of ENK6 (30 mg/kg i.p.).
The mark [7] stands for this setting: sodium channel blocker 3 mg/kg s.c. in the presence of ENK6 (30 mg/kg i.p.).
Setting [8] is: sodium channel blocker alone, 1 mg/kg s.c., 30 minutes prior to test.
Setting [9] is: sodium channel blocker alone, 3 mg/kg s.c., 30 minutes prior to test.
The mark [10] stands for this setting: ENK6 30 mg/kg i.p. + ENa13 1 mg/kg s.c., n = 2.
[11] abbreviates: ENK6 30 mg/kg i.p. + ENa13 3 mg/kg s.c., n = 2.

Like-named read-outs stand apart in the source and are kept apart here.

A word on the ED50: it is the dose that gives a 50% effect, or the effect in half of the subjects.

Take `COc1ccc(-n2nnnc2C(F)(F)F)cc1CN[C@H]1CCCN[C@H]1c1ccccc1.Cl.Cl` [ENK6, [2-Methoxy-5-(5-trifluoromethyl-tetrazol-1-yl)-benzyl]-([2S,3S]-2-phenyl-piperidin-3-yl)-amine dihydrochloride]: the “effect on seizure threshold” value with Male CD rats (ENK6 alone, 10 mg/kg s.c., 15 minutes before testing (first experiment)) is on record as “no effect on seizure threshold”; with Male CD rats (ENK6 alone, 30 mg/kg i.p., 60 minutes before the test), “no effect on seizure threshold”; with Male CD rats (ENK6 alone, 30 mg/kg s.c., 15 minutes before testing), “no effect on seizure threshold”. Also, the concentration at 15 min in data set [1] (blood, 10 mg/kg, ENK6 10 mg/kg s.c. + ENa7 veh, n = 2-3, read-out: Blood concentration) came out at 839 ng/mL; in data set [1] (blood, 30 mg/kg, ENK6 30 mg/kg s.c. + ENa7 veh, n = 2, read-out: Blood concentration), 1890 ng/mL; in data set [1] (brain, 10 mg/kg, ENK6 10 mg/kg s.c. + ENa7 veh, n = 2-3, read-out: Brain concentration), 1420 ng/g; in data set [1] (brain, 30 mg/kg, ENK6 30 mg/kg s.c. + ENa7 veh, n = 2, read-out: Brain concentration), 4500 ng/g. In addition, the Blood concentration in data set [1] (setting [2]) was determined as 635 ng/mL; in data set [1] (setting [3]), 732 ng/mL; in data set [1] (setting [4]), 1542 ng/mL; in data set [1] (setting [5]), 1481 ng/mL. Besides, the Brain concentration in data set [1] (setting [2]) is 1254 ng/g; in data set [1] (setting [3]), 1504 ng/g; in data set [1] (setting [4]) it was 3343 ng/g; in data set [1] (setting [5]), 2484 ng/g. The ED50 in the data set with rats (Rattus norvegicus, po, compound alone, 0.1-3.0 mg/kg p.o. as printed, 1 hour post dose, range in brackets as printed, read-out: ED50, reversal of the FCA induced hypersensitivity) amounted to 0.4 mg/kg. The “reversal of the FCA induced hypersensitivity” value in the data set on rats (compound alone, 0.1-3.0 mg/kg, 1 hour post dose) is recorded as “dose related reversal”. In addition, the “ED20, reversal of the FCA induced hypersensitivity” value in the data set with rats (compound alone, p.o. as printed, from the dose response curve) is on record as 0.08 mg/kg; in the data set with rats (compound alone, s.c. (summary of results)), “approx 0.08 mg/kg”. The “effect on the FCA induced hypersensitivity” value with rats (each compound alone at its ED20 dose (ENa7 0.1 mg/kg p.o.; ENK6 0.08 mg/kg s.c.)) is recorded as “no significant effect”.

Take `Nc1nc(N)c(-c2cccc(Cl)c2Cl)c(CF)n1` [ENa15, R(−)-2,4-diamino-5-(2,3-dichlorophenyl)-6-fluoromethyl pyrimidine methanesulphonate]: the “increase in CC50 (mA)” value in the data set on Male CD rats (sodium channel blocker 0.3 mg/kg p.o. in the presence of ENK6 30 mg/kg s.c.) came out at 176%; in the data set with Male CD rats (sodium channel blocker 1 mg/kg p.o. in the presence of ENK6 30 mg/kg s.c.), 51%. Also, in the data set with Male CD rats (sodium channel blocker alone, 0.3 mg/kg p.o., 60 minutes before the test), the “effect on seizure threshold” value is “no increase in seizure threshold”. The “increase in seizure threshold” value in the data set with Male CD rats (sodium channel blocker alone, 1 mg/kg p.o., 60 minutes before the test) was 292%.

On to `Cl.NC(=O)[C@@H]1CC[C@H](c2ccc(OCc3ccccc3F)cc2)N1` [ENa9, (5R)-5-(4-{[(2-fluorophenyl)methyl]oxy}phenyl)-L-prolinamide hydrochloride], for which the “increase in CC50 (mA)” value is 133% in the data set on Male CD rats (setting [6]) and 323% in the data set on Male CD rats (setting [7]). For the same compound, the “effect on seizure threshold” value with Male CD rats (setting [8]) was “inactive”; in the data set on Male CD rats (setting [9]), “small, but significant increase in seizure threshold”. For the same compound, the “change of blood or brain concentration of the sodium channel blocker in the presence of ENK6” value in data set [1] was “No increase”.

Regarding `CN1CC[C@]2(CC[C@H](c3ccc(OCc4ccccc4F)cc3)N2)C1=O.Cl` [ENa13, (2R,5R)-2-(4-{[(2-Fluorophenyl)methyl]oxy}phenyl)-7-methyl-1,7-diazaspiro[4.4]nonan-6-one hydrochloride], the results for the “increase in CC50 (mA)” value in the data set on Male CD rats (setting [6]) and in the data set on Male CD rats (setting [7]) were 118% and 129%, respectively. The “effect on seizure threshold” value is “inactive” in the data set with Male CD rats (setting [8]); “robust and significant increase in seizure threshold” in the data set with Male CD rats (setting [9]). For the same compound, the concentration at 30 min was found to be 499 ng/mL in data set [1] (blood, 1 mg/kg, ENK6 veh + ENa13 1 mg/kg s.c., n = 2, read-out: Blood concentration); 1820 ng/mL in data set [1] (blood, 3 mg/kg, ENK6 veh + ENa13 3 mg/kg s.c., n = 2, read-out: Blood concentration); 478 ng/g in data set [1] (brain, 1 mg/kg, ENK6 veh + ENa13 1 mg/kg s.c., n = 2, read-out: Brain concentration); 1820 ng/g in data set [1] (brain, 3 mg/kg, ENK6 veh + ENa13 3 mg/kg s.c., n = 2, read-out: Brain concentration). Also, in data set [1], the “change of blood or brain concentration of the sodium channel blocker in the presence of ENK6” value is “No increase”. For the same compound, the results for the Blood concentration in data set [1] (setting [10]) and in data set [1] (setting [11]) were 416 ng/mL and 1160 ng/mL, respectively. Also, the Brain concentration is on record as 508 ng/g in data set [1] (setting [10]) and 1235 ng/g in data set [1] (setting [11]).

The values above are taken from patent US20100105688A1, “PHARMACEUTICAL COMPOSITIONS COMPRISING 3,5-DIAMINO-6-(2,3-DICHLOPHENYL)-1,2,4-TRIAZINE OR R(-)-2,4-DIAMINO-5-(2,3-DICHLOROPHENYL)-6-FLUOROMETHYL PYRIMIDINE AND AN NK1” (GLAXO GROUP LIMITED, priority 2007, published 2010).
